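48-hour exposure; five concentrations; linearly interpolated endpoints. Definition used: TGI = concentration required for complete inhibition of growth.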
Assays:
Test in all cases: growth of human tumour cells (NCI), 48 h
[1] = test system: HL-60(TB) leukemia
[2] = test system: NCI-H226 lung
[3] = test system: SF-295 CNS
[4] = test system: OVCAR-4 ovarian
[5] = test system: SK-MEL-28 melanoma
[6] = test system: BT-549 breast
[7] = test system: OVCAR-5 ovarian
[8] = test system: SK-MEL-5 melanoma
[9] = test system: COLO 205 colon
[10] = test system: MDA-MB-435
[11] = test system: A498 renal
[12] = test system: HCC-2998 colon
[13] = test system: RXF 393 renal
[14] = test system: EKVX NSCLC
[15] = test system: LOX IMVI melanoma
[16] = test system: HS 578T breast
[17] = test system: SK-MEL-2 melanoma
[18] = test system: UACC-62 melanoma
[19] = test system: NCI-H522 lung

SMILES | TGI [1] [µM] | TGI [2] [µM] | TGI [3] [µM] | TGI [4] [µM] | TGI [5] [µM] | TGI [6] [µM] | TGI [7] [µM] | TGI [8] [µM] | TGI [9] [µM] | TGI [10] [µM] | TGI [11] [µM] | TGI [12] [µM] | TGI [13] [µM] | TGI [14] [µM] | TGI [15] [µM] | TGI [16] [µM] | TGI [17] [µM] | TGI [18] [µM] | TGI [19] [µM]
CNCCCn1c2ccccc2c2c3c(c(-c4ccsc4)cc21)C(=O)NC3=O | 4 | 23.6 | 1.71 | 3.22 | 3.36 | 13.7 | 3.16 | 2.16 | 2.71 | 2.35 | < 0.0254 | 55.5 | 1.25 | 3.75 |  |  |  |  | 
O=c1oc2c/c(=C\c3ccc([N+](=O)[O-])cc3)c(=O)c3cccc1c3-2 | > 100 |  | > 100 |  | > 100 | > 100 | > 100 | > 100 | > 100 | > 100 |  | > 100 |  | > 100 | > 100 | > 100 | > 100 | > 100 | 90.5
CC(C)(C)OC/C=C(/CO)[C@@H]1C=C[C@H](O)C1 |  | > 100 | > 100 | > 100 | > 100 | > 100 | > 100 |  | > 100 | > 100 | > 100 | > 100 |  | > 100 |  |  | > 100 | > 100 | 
O=C(Cn1c(-c2ccccc2)cc2ccccc21)N1CCCC1 |  | > 100 | > 100 | > 100 |  | > 100 | > 100 | > 100 | > 100 |  |  |  |  | > 100 | > 100 | > 100 | > 100 | > 100 | > 100
